Assay results: PubChem BioAssay (NCI)
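Compound exposure: 48 hours, 5 concentrations, 96-well plates. GI50 is the concentration that inhibits growth by half. At the TGI there is no net growth.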

Columns and labels:
Assay in all cases: NCI tumour cell line growth inhibition, 48 h
[1] = system: EKVX NSCLC
[2] = system: HCC-2998 colon
[3] = system: NCI-H226 lung
[4] = system: NCI-H23 lung
[5] = system: NCI/ADR-RES ovarian
[6] = system: OVCAR-5 ovarian
[7] = system: SF-295 CNS
[8] = system: SK-OV-3 ovarian
[9] = system: SR leukemia
[10] = system: TK-10 renal

| SMILES | GI50 [1] [µM] | TGI [1] [µM] | GI50 [2] [µM] | TGI [2] [µM] | GI50 [3] [µM] | TGI [3] [µM] | GI50 [4] [µM] | TGI [4] [µM] | GI50 [5] [µM] | TGI [5] [µM] | GI50 [6] [µM] | TGI [6] [µM] | GI50 [7] [µM] | TGI [7] [µM] | GI50 [8] [µM] | TGI [8] [µM] | GI50 [9] [µM] | TGI [9] [µM] | GI50 [10] [µM] | TGI [10] [µM] |
| --- | --- | --- | --- | --- | --- | --- | --- | --- | --- | --- | --- | --- | --- | --- | --- | --- | --- | --- | --- | --- |
| Clc1ccccc1[C@@H]1C[C@@H]2Cc3cc(Br)c4ccccc4c3N1O2 | 23.3 | > 100 | 4.19 | > 100 | 3.65 | > 100 | 8.33 | > 100 | 2.75 | > 100 | 16.9 | > 100 | 3.49 | > 100 | 3.79 | > 100 | 3.33 | > 100 | 5.54 | > 100 |
| Oc1[nH]c(N=C2N=c3ccccc3=N2)c2ccccc12 | 4.22 | 52.2 | 17.4 | > 100 | 10.4 | 30 | 7.29 | 52.6 | 3.87 | 30.1 | 20.4 | 68.1 | 3.64 | 26 | 12.1 | 27.7 | 5.46 | 41.6 | 21 | 55.4 |
| O=C(O)C(Br)C(Br)C(=O)O (stereo not given) | – | > 100 | – | > 100 | – | > 100 | – | > 100 | – | > 100 | – | > 100 | – | > 100 | – | > 100 | – | > 100 | – | > 100 |
| O=C1NC(O)c2ccccc2O1 (stereo not given) | – | > 100 | – | > 100 | – | > 100 | – | > 100 | – | > 100 | – | > 100 | – | > 100 | – | > 100 | – | > 100 | – | > 100 |
| C=C1C(=O)O[C@H]2[C@H]1CC/C(Cn1cc(Cc3c[nH]c4ccccc34)nn1)=C\CC[C@@]1(C)O[C@@H]21 | 1.84 | 3.98 | 2.18 | 3.92 | 2.1 | 4.75 | 2.02 | 4.56 | 6.22 | 21.9 | 1.8 | 3.48 | 4.71 | 17.2 | 14.2 | 27.4 | 0.389 | 8.32 | 1.82 | 3.4 |
| COc1cc(-c2nn(-c3cccc(NC(=O)NCCNS(=O)(=O)c4ccc(Cl)cc4)c3)cc2-c2ccncc2)ccc1Cl | 2.15 | > 100 | 1.69 | 5.09 | 1.45 | 14.3 | 1.21 | 8.79 | 22.7 | > 100 | 2.82 | > 100 | 0.513 | 2.09 | 1.85 | 17.5 | 0.466 | 3.53 | 2.81 | 9.26 |
| C=C1C(=O)O[C@H]2[C@H]1CC/C(COC(=O)c1cn(C)c3ccccc13)=C\CC[C@@]1(C)O[C@@H]21 | 0.962 | 3.42 | 1.81 | 3.8 | 1.48 | 3.26 | 1.93 | 4.92 | 2.15 | 14.2 | 1.56 | 4.11 | 2.41 | 6.98 | 4.33 | 15 | 0.342 | 1.17 | 1.1 | 2.3 |
| COc1cccc(-n2ncc3c(N/N=C/c4ccc(C)cc4)ncnc32)c1 | > 25 | > 25 | > 25 | > 25 | > 25 | > 25 | > 25 | > 25 | > 25 | > 25 | > 25 | > 25 | > 25 | > 25 | > 25 | > 25 | > 14.4 | > 25 | > 25 | > 25 |
| c1ccc2cc(Cn3cc[n+](Cc4ccc5ccccc5c4)c3)ccc2c1 | 2.51 | 15.5 | 1.05 | 4.38 | 1.72 | 14.3 | 0.901 | 10.1 | > 100 | > 100 | 1.71 | 7.19 | 3.65 | 19.6 | 2.15 | 11.1 | 1.03 | 3.42 | 3.32 | 14.3 |
| COC1(OC)C2(Cl)C(Cl)=C(Cl)C1(Cl)C1c3ccc(C(C)=O)c4cccc(c34)C12 (stereo not given) | – | > 100 | – | 52.7 | – | 81.4 | – | > 83 | – | > 100 | – | > 100 | – | > 100 | – | > 100 | – | 50.2 | – | > 100 |
| CC/C=C\C[C@H](O)C/C=C1/C(=O)C=C[C@@H]1C/C=C\CCCC(=O)OC(C)C | 3.04 | 11.6 | 1.87 | 3.38 | 2.58 | 6.08 | 1.73 | 4.37 | 3.11 | 17.2 | 3.07 | 8.41 | 2.91 | 8.34 | 5.01 | 16.1 | 0.896 | 5.01 | 3.54 | 9.31 |
| CCC#CC[C@H](O)C/C=C1/C(=O)C=C[C@@H]1C/C=C\CCCC(=O)OC | 1.76 | 7.73 | 1.07 | 1.89 | 0.863 | 1.9 | 1.02 | 2.78 | 1.16 | 3.4 | 1.81 | 7.88 | 1.28 | 3.15 | 3.21 | 10.2 | 0.278 | 38.2 | 1.66 | 3.97 |
